Blank lines part the entries; values can stand above or below the molecule they belong to.
Tests used:
PGC-1α [1] = molecular target: T1, PGC-1α (Mus musculus, UniProt O70343); test: AlphaLisa PGC-1α acetylation screen in U-2 OS cells over expressing PGC-1α and GCN5; format: cell-based; set-up: expressed in transfected cells; host or cells: U-2 OS cells infected with Ad-PGC-1α and Ad-GCN5
T1 sequence (O70343 1-797): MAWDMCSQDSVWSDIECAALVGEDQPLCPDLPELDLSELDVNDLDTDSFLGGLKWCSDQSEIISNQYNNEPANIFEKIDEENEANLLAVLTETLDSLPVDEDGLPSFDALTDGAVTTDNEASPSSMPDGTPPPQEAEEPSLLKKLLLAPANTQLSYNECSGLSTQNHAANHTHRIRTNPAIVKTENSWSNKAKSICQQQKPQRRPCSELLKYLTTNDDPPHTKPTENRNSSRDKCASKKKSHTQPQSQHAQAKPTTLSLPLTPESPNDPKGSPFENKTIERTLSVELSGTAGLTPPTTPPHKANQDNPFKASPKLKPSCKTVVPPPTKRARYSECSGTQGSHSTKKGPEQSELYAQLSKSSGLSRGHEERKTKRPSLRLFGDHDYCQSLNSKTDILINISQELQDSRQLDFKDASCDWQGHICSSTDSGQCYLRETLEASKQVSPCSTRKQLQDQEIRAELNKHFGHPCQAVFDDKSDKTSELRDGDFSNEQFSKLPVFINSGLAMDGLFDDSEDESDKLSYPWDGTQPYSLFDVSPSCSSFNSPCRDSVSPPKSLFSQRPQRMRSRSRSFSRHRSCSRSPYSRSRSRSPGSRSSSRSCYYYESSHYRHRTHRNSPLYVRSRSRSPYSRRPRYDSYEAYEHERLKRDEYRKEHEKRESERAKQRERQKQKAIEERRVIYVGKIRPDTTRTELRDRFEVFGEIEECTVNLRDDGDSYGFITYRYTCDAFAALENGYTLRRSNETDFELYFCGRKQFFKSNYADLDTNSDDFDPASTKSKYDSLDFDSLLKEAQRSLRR
Experimental: U-2 OS cells were thawed and grown in 4 Triple flasks (NUNC) with growth medium. After 48 hours, cells were harvested and seeded in 4 Hyper flasks at a density of 15-20 million cell each. Cells were then grown for 4-5 days until reached confluency. After reaching the desired confluency, medium was changed to assay medium and cells were infected with Ad-PGC-1α and Ad-GCN5 for 4 hours. Following infection, medium was changed to phenol-free medium and cells were incubated overnight. The following day, cells were harvested and seeded on a 384-well plate at 7000 cells/well in […] assay media. Cells were allowed to adhere for 4-8 hours after which 100 nl of compound was added. After overnight incubation with compound, media was aspirated and cells were incubated with lysis buffer for 1 hour at RT. […] Perkin Elmer EnVision plate reader was used for signal detection using Alpha protocol. For each compound, activity score was calculated based on the mean of the normalized and corrected sample activity replicates. […] For each sample the highest valid tested concentration was determined and set as Maximum concentration. […] AC values were calculated using the curve fitting strategies in Genedata Screener Condoseo (7.0.3) and up to the active concentration limit (Maximum concentration) described for each sample. […]

primary hepatocytes = test: Glucose production by primary hepatocytes (glucagon or Ad-PGC-1α); format: cell-based, mouse; conditions: for glucose release to culture medium compared to control: hepatocytes ectopically expressing PGC-1α, overnight treatment, pyruvate/lactate
Experimental: (§1) For measurement of acetylation, gene expression and glucose production SR-18292 ([…]) was added to cells overnight and fresh compound was added the following day for additional 3 h before collecting the cells (for total of ˜18 h treatment). Where insulin and glucagon stimulation were performed, the medium was changed to starvation medium (DMEM, 0.2% BSA, 2 mM sodium pyruvate, and 1% penicillin/streptomycin) with fresh compound for the last 3 h and cells were stimulated with either 100 nM insulin or 200 nM glucagon for an extra 1.5 h. For glucose measurements following PGC-1α over expression cells were incubated for the last 3 h in glucose-free medium (phenol-red/glucose free DMEM, 0.2% BSA, 2 mM sodium pyruvate and 20 mM sodium lactate or 10 mM glycerol in case glycerol was used as substrate). For glucose measurements following glucagon stimulation cells were incubated for the last 4 h in the same glucose-free medium that also contained glucagon (200 nM). The glucose level in the medium was measured using a glucose assay kit from Eton Bioscience Inc. by adding […] of assay buffer to […] of medium followed by 15 min incubation at 37° C. Absorbance was measured at 490 nm.
PGC-1α activates hepatic gluconeogenic gene expression, and an increase in its acetylation status reduces expression of both Pck1 and G6pc genes (Rodgers et al., 2005; Yoon et al., 2001). […] Thus, a high-throughput screen with these 252 compounds at different doses was performed. Briefly, Hepatocytes were treated with forskolin for 1.5 hours to induce the expression of both Pck1 and G6pc genes, which mimics the fasting and PGC-1α-mediated gluconeogenic response. The dose response curves were used to calculate an inhibitory activity of the compounds by determining the difference in Ct values between compound treatment and forskolin control at each dose, and provided an estimated potency of the compounds in suppressing Pck1 and G6pc (FIGS. 4, 34). […] To specifically test the inhibitory activity of the remaining small molecule positive hits on PGC-1α-mediated glucose production, adenoviruses to ectopically express PGC-1α in primary hepatocytes were used. Similar to forskolin, PGC-1α overexpression induces gluconeogenic gene expression and promotes glucose release. Primary hepatocytes were treated with the chosen positive hit compounds that could suppress gluconeogenic gene expression, and the concentration of glucose released to the culture medium was measured.

[2] = Preliminary pharmacokinetics, liver concentration; format: in vivo; conditions: ip, 2 h after single dose 30 mg/kg I.P., read-out: compound concentration in the liver
[3] = Bioavailability (data not shown)
[4] = Solubility (data not shown); format: physicochemical
PGC-1α [5] = molecular target: T1, PGC-1α; test: Western blot of PGC-1α acetylation in U-2 OS cells (analog comparison); format: cell-based; set-up: expressed in transfected cells; host or cells: U-2 OS cells infected with Ad-PGC-1α and Ad-GCN5; dose or concentration left out as unconfirmed; conditions: Ad-PGC-1α and Ad-GCN5, 18 h
Experimental: U-2 OS cells were infected with Ad-PGC-1α and Ad-GCN5 and treated with the indicated compound for 18 h. PGC-1α was immunoprecipitated using FLAG beads.
For PGC-1α acetylation detection in hepatocytes cells were infected with Ad-PGC-1α and Ad-GCN5. Cells were collected in RIPA buffer (containing protease inhibitor cocktail, 5 mM NaF, 5 mM β-glycerophosphate, 10 mM nicotinamide, 1 mM DTT and 1 μM trichostatin A). FLAG-HA-PGC-1α was immunoprecipitated overnight at 4° C. with FLAG beads (Sigma A2220). For GCN5 interaction with PGC-1α, U-2 OS cells were infected with Ad-PGC-1α. Nuclear extracts were obtained by lysing cell in Buffer A (10 mM HEPES-KOH (pH 7.9), 10 mM KCl, 1.5 mM MgCl2, 0.5 mM DTT, 0.25% IGEPAL (v/v), 5 mM NaF, 5 mM β-glycerophosphate, 5 mM sodium butyrate and 10 mM nicotinamide), supplemented with Protease Inhibitor Cocktail. Once cytoplasmic fractions were separated, nuclear pellets were lysed in Buffer B (20 mM HEPES-KOH (pH 7.9), 125 mM NaCl, 1 mM EDTA, 1 mM DTT, 1% IGEPAL (v/v), 10% glycerol (v/v), 5 mM NaF, 5 mM β-glycerophosphate, 5 mM sodium butyrate and 10 mM nicotinamide), supplemented with Protease Inhibitor Cocktail. FLAG-HA-PGC-1α was immunoprecipitated with FLAG beads overnight at 4° C. All beads were washed at last 3 times in lysis buffer before eluting in sample loading buffer.

[6] = tested on: Pck1 and G6pc gene expression; test: Gluconeogenic gene and protein expression in primary hepatocytes (qPCR, western); format: cell-based, mouse; set-up: effect on glucagon or PGC-1α-increased Pck1 and G6pc expression, relative to SR-18292: dose or concentration left out as unconfirmed; conditions: 18 h, glucagon or Ad-PGC-1α
Experimental: as §1
siRNA oligos against mouse Ppargc1a were purchased from OriGene (SR420231). Hepatocytes were transfected with a 1:1:1:mixture of 3 unique 27mer siRNA duplexes ([…]) using Lipofectamin RNAiMax (Invitrogen) immediately upon seeding with plating medium. The following morning cells were washed with PBS and medium was changed to maintenance medium. In the afternoon, cells were transfected again and compound treatment started.
Total RNA was extracted from cells or pulverized liver using TRIzol reagent (Ambion, Life Technologies), followed by cDNA preparation from 2 μg of total RNA with a High-Capacity cDNA Reverse Transcription Kit (Applied Biosystems). cDNA products were quantified by real-time PCR using Power SYBR Green PCR Master Mix (Applied Biosystems) on a CFX384 Real-Time PCR System (Bio-Rad). To calculate IC50 from C-80 dose response, curves were fit to the hill equation in a similar manner used to calculate estimated AC50 from the high-throughput qPCR screen. However, unlike the curves from the qPCR high-throughput screen, values of relative repression were used rather than of delta-Ct.

potency in a confirmatory screen (PGC-1α [1]): highest potency
concentration at 2 h [2]: 2300 nM
Compound: Cc1ccc(CN(CC(O)COc2cccc3[nH]cc(C)c23)C(C)(C)C)cc1 (stereo not drawn) [Compound C-80]
glucose release to culture medium compared to control (primary hepatocytes): next most potent small molecule

bioavailability [3]: poor
solubility [4]: poor
Compound: Cc1nc(N2CCN(S(=O)(=O)c3ccc(F)cc3)CC2)c2c(-c3cccs3)csc2n1 [Compound C-82]
glucose release to culture medium compared to control (primary hepatocytes): top small molecule hit suppressing glucose production

Compound: Cc1ccc(CN(CC(O)COc2ccccc2)C(C)(C)C)cc1 (stereo not drawn) [SR-19138]
ability to induce acetylation of PGC-1α compared to SR-18292 (PGC-1α [5]): reduced ability to induce acetylation of PGC-1α
effect on glucagon or PGC-1α-increased Pck1 and G6pc expression, relative to SR-18292 [6]: reduced the inhibitory effect

Compound: CN(C)C(=N)N=C(N)N [metformin, reference compound]
concentration able to suppress glucose production (primary hepatocytes; hepatocytes): 100 to 250 µM

Source: patent publication US11247970B2, “Selective inhibition of gluconeogenic activity” (Dana-Farber Cancer Institute, Inc., priority 2017, dated 2022)
